The text below walks through data of patent US9832999B1, “Bicyclic compounds as pest control agents” (BAYER CROPSCIENCE AKTIENGESELLSCHAFT, priority 2014, dated 2017).

The first test has as its system Myzus persicae. Kind of test: Myzus persicae - spray test. Type of test: in vivo. To be noted: foliar, 144 h, application rate 500 g/ha, after 6 days, Chinese cabbage leaf discs, all stages of green peach aphid, 100% = all aphids killed, read-out: efficacy. On the procedure: To produce further test concentrations, the formulation is diluted with emulsifier-containing water.
Take `CON(C)C(=O)c1cc2cn(-c3cccnc3)nc2cn1` [Compound 11]: the pest or weed control at 500 g/ha stood at 90%.

Regarding `O=C(NCC(F)F)c1cc2cn(-c3cccnc3)nc2cn1` [Compound 36], the pest or weed control at 500 g/ha came to 90%.

On to `O=C(NC1CC1)c1cc2cn(-c3cccnc3)nc2cn1` [Compound 29], for which the pest or weed control at 500 g/ha worked out at 90%.

Consider `CCNC(=O)c1cc2cn(-c3cccnc3)nc2cn1` [Compound 31], for which the pest or weed control at 500 g/ha was 90%.

In the case of `CON(C)C(=O)c1cc2cn(-c3cncc(F)c3)nc2cn1` [Compound 26], the pest or weed control at 500 g/ha turned out to be 90%.

In the case of `CN(C)C(=O)c1cc2cn(-c3cncc(F)c3)nc2cn1` [Compound 20], the pest or weed control at 500 g/ha came to 90%.

For the compound `CNC(=O)c1cc2cn(-c3cnccn3)nc2cn1` [Compound 14], the pest or weed control at 500 g/ha was determined as 90%.

In the case of `CNC(=O)c1cc2cn(-c3cncc(F)c3)nc2cn1` [Compound 19], the pest or weed control at 500 g/ha turned out to be 90%.

Another test deals with Musca domestica. Kind of test: Musca domestica test. It is filed as in vivo. To be noted: application rate 100 ppm; after 2 days; adult houseflies; 100% = all flies killed. The protocol:
• Solvent: dimethyl sulfoxide
To produce a suitable preparation of active compound, 10 mg of active compound are mixed with 0.5 ml of dimethyl sulfoxide, and the concentrate is diluted with water to the desired concentration.
Vessels containing a sponge treated with sugar solution and the active compound formulation of the desired concentration are populated with 10 adult houseflies (Musca domestica).
After 2 days, the kill in % is determined. 100% means that all of the flies have been killed; 0% means that none of the flies have been killed.
As for `CNC(=O)c1cc2cn(-c3cnccn3)nc2cn1` [Compound 14], the “efficacy (kill)” value came out at 80%.
